Test results as given in the supplement of paper PMC10307832.

Key:
Test in all cases: relative viability (nuclei count vs DMSO), 5 days (fraction); higher = more cells survive
LCLC-97TM1 = test system: LCLC-97TM1
How it was run: (§1)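 Relative viability was taken as the ratio of nuclei in treated wells to nuclei in vehicle wells. Lung cancer cell lines in 1536-well plates received compounds by pin tool one day after seeding, either one drug alone or a fixed anchor-drug dose plus five library-drug doses (not always all listed) in √10 steps. Nuclei were counted on 4× images after 5 days of treatment, and values are medians of duplicate plates.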

NCI-H661 = test system: NCI-H661
How it was run: as §1

NCI-H1651 = test system: NCI-H1651
How it was run: as §1

NCI-H650 = test system: NCI-H650
How it was run: as §1

NCI-H358 = test system: NCI-H358
How it was run: as §1

NCI-H2087 = test system: NCI-H2087
How it was run: as §1

NCI-H2342 = test system: NCI-H2342
How it was run: as §1

SK-MES-1 = test system: SK-MES-1
How it was run: as §1

NCI-H596 = test system: NCI-H596
How it was run: as §1

PC-3 [JPC-3] = test system: PC-3 [JPC-3]
How it was run: as §1

NCI-H1355 = test system: NCI-H1355
How it was run: as §1

NCI-H1975 = test system: NCI-H1975
How it was run: as §1

NCI-H838 = test system: NCI-H838
How it was run: as §1

NCI-H1944 = test system: NCI-H1944
How it was run: as §1

LXF-289 = test system: LXF-289
How it was run: as §1

NCI-H1666 = test system: NCI-H1666
How it was run: as §1

LU99A = test system: LU99A
How it was run: as §1

ChaGo-K-1 = test system: ChaGo-K-1
How it was run: as §1

LC-2-ad = test system: LC-2-ad
How it was run: as §1

LK-2 = test system: LK-2
How it was run: as §1

BEN = test system: BEN
How it was run: as §1

HCC-78 = test system: HCC-78
How it was run: as §1

SMILES: CC(=O)O[C@@]12CO[C@@H]1C[C@H](O)[C@@]1(C)C(=O)[C@H](O)C3=C(C)[C@@H](OC(=O)[C@H](O)[C@@H](NC(=O)OC(C)(C)C)c4ccccc4)C[C@@](O)([C@@H](OC(=O)c4ccccc4)[C@H]21)C3(C)C [Docetaxel] + Cc1nc(Nc2ncc(C(=O)Nc3c(C)cccc3Cl)s2)cc(N2CCN(CCO)CC2)n1 [Dasatinib] (partner 0.075 µM)
- relative viability (LCLC-97TM1; first compound 0.0002 µM): 0.843
- relative viability (LCLC-97TM1; first compound 0.000632 µM): 0.762
- relative viability (LCLC-97TM1; first compound 0.002 µM): 0.675
- relative viability (LCLC-97TM1; first compound 0.006325 µM): 0.273
- relative viability (LCLC-97TM1; first compound 0.02 µM): 0.144
- relative viability (NCI-H661; first compound 0.0002 µM): 0.836
- relative viability (NCI-H661; first compound 0.000632 µM): 0.792
- relative viability (NCI-H661; first compound 0.002 µM): 0.528
- relative viability (NCI-H661; first compound 0.006325 µM): 0.395
- relative viability (NCI-H661; first compound 0.02 µM): 0.284
- relative viability (NCI-H1651; first compound 0.0002 µM): 0.338
- relative viability (NCI-H1651; first compound 0.000632 µM): 0.236
- relative viability (NCI-H1651; first compound 0.002 µM): 0.119
- relative viability (NCI-H1651; first compound 0.006325 µM): 0.0789
- relative viability (NCI-H1651; first compound 0.02 µM): 0.0711
- relative viability (NCI-H650; first compound 0.0002 µM): 0.396
- relative viability (NCI-H650; first compound 0.000632 µM): 0.361
- relative viability (NCI-H650; first compound 0.002 µM): 0.253
- relative viability (NCI-H650; first compound 0.006325 µM): 0.228
- relative viability (NCI-H650; first compound 0.02 µM): 0.198
- relative viability (NCI-H358; first compound 0.0002 µM): 0.159
- relative viability (NCI-H358; first compound 0.000632 µM): 0.179
- relative viability (NCI-H358; first compound 0.006325 µM): 0.111
- relative viability (NCI-H358; first compound 0.02 µM): 0.0699
- relative viability (NCI-H2087; first compound 0.0002 µM): 0.809
- relative viability (NCI-H2087; first compound 0.000632 µM): 0.371
- relative viability (NCI-H2087; first compound 0.002 µM): 0.171
- relative viability (NCI-H2087; first compound 0.006325 µM): 0.139
- relative viability (NCI-H2087; first compound 0.02 µM): 0.102
- relative viability (NCI-H2342; first compound 0.0002 µM): 0.309
- relative viability (NCI-H2342; first compound 0.000632 µM): 0.326
- relative viability (NCI-H2342; first compound 0.002 µM): 0.308
- relative viability (NCI-H2342; first compound 0.006325 µM): 0.285
- relative viability (NCI-H2342; first compound 0.02 µM): 0.265
- relative viability (SK-MES-1; first compound 0.0002 µM): 0.326
- relative viability (SK-MES-1; first compound 0.000632 µM): 0.316
- relative viability (SK-MES-1; first compound 0.002 µM): 0.19
- relative viability (SK-MES-1; first compound 0.006325 µM): 0.167
- relative viability (SK-MES-1; first compound 0.02 µM): 0.072
- relative viability (NCI-H596; first compound 0.0002 µM): 0.551
- relative viability (NCI-H596; first compound 0.000632 µM): 0.6
- relative viability (NCI-H596; first compound 0.002 µM): 0.543
- relative viability (NCI-H596; first compound 0.006325 µM): 0.397
- relative viability (NCI-H596; first compound 0.02 µM): 0.222
- relative viability (PC-3 [JPC-3]; first compound 0.0002 µM): 0.94
- relative viability (PC-3 [JPC-3]; first compound 0.000632 µM): 0.954
- relative viability (PC-3 [JPC-3]; first compound 0.002 µM): 0.762
- relative viability (PC-3 [JPC-3]; first compound 0.006325 µM): 0.339
- relative viability (PC-3 [JPC-3]; first compound 0.02 µM): 0.16
- relative viability (NCI-H1355; first compound 0.0002 µM): 0.726
- relative viability (NCI-H1355; first compound 0.000632 µM): 0.665
- relative viability (NCI-H1355; first compound 0.002 µM): 0.472
- relative viability (NCI-H1355; first compound 0.006325 µM): 0.314
- relative viability (NCI-H1355; first compound 0.02 µM): 0.203
- relative viability (NCI-H1975; first compound 0.0002 µM): 0.377
- relative viability (NCI-H1975; first compound 0.000632 µM): 0.284
- relative viability (NCI-H1975; first compound 0.002 µM): 0.152
- relative viability (NCI-H1975; first compound 0.006325 µM): 0.127
- relative viability (NCI-H1975; first compound 0.02 µM): 0.107
- relative viability (NCI-H838; first compound 0.0002 µM): 0.318
- relative viability (NCI-H838; first compound 0.000632 µM): 0.3
- relative viability (NCI-H838; first compound 0.002 µM): 0.265
- relative viability (NCI-H838; first compound 0.006325 µM): 0.247
- relative viability (NCI-H838; first compound 0.02 µM): 0.175
- relative viability (NCI-H1944; first compound 0.0002 µM): 0.216
- relative viability (NCI-H1944; first compound 0.000632 µM): 0.228
- relative viability (NCI-H1944; first compound 0.002 µM): 0.204
- relative viability (NCI-H1944; first compound 0.006325 µM): 0.178
- relative viability (NCI-H1944; first compound 0.02 µM): 0.105
- relative viability (LXF-289; first compound 0.0002 µM): 0.181
- relative viability (LXF-289; first compound 0.000632 µM): 0.154
- relative viability (LXF-289; first compound 0.002 µM): 0.0677
- relative viability (LXF-289; first compound 0.006325 µM): 0.0536
- relative viability (LXF-289; first compound 0.02 µM): 0.0314
- relative viability (NCI-H1666; first compound 0.0002 µM): 0.684
- relative viability (NCI-H1666; first compound 0.000632 µM): 0.594
- relative viability (NCI-H1666; first compound 0.002 µM): 0.465
- relative viability (NCI-H1666; first compound 0.006325 µM): 0.414
- relative viability (NCI-H1666; first compound 0.02 µM): 0.284
- relative viability (LU99A; first compound 0.0002 µM): 0.588
- relative viability (LU99A; first compound 0.000632 µM): 0.372
- relative viability (LU99A; first compound 0.002 µM): 0.285
- relative viability (LU99A; first compound 0.006325 µM): 0.277
- relative viability (ChaGo-K-1; first compound 0.0002 µM): 0.486
- relative viability (ChaGo-K-1; first compound 0.000632 µM): 0.429
- relative viability (ChaGo-K-1; first compound 0.002 µM): 0.404
- relative viability (ChaGo-K-1; first compound 0.006325 µM): 0.257
- relative viability (ChaGo-K-1; first compound 0.02 µM): 0.132
- relative viability (LC-2-ad; first compound 0.0002 µM): 0.362
- relative viability (LC-2-ad; first compound 0.000632 µM): 0.38
- relative viability (LC-2-ad; first compound 0.002 µM): 0.28
- relative viability (LC-2-ad; first compound 0.006325 µM): 0.207
- relative viability (LK-2; first compound 0.0002 µM): 0.212
- relative viability (LK-2; first compound 0.000632 µM): 0.268
- relative viability (LK-2; first compound 0.002 µM): 0.181
- relative viability (LK-2; first compound 0.006325 µM): 0.21
- relative viability (LK-2; first compound 0.02 µM): 0.113
- relative viability (BEN; first compound 0.0002 µM): 0.281
- relative viability (BEN; first compound 0.000632 µM): 0.355
- relative viability (BEN; first compound 0.002 µM): 0.328
- relative viability (BEN; first compound 0.006325 µM): 0.183
- relative viability (BEN; first compound 0.02 µM): 0.154
- relative viability (HCC-78; first compound 0.0002 µM): 0.352
- relative viability (HCC-78; first compound 0.000632 µM): 0.3
- relative viability (HCC-78; first compound 0.002 µM): 0.235
- relative viability (HCC-78; first compound 0.006325 µM): 0.248
- relative viability (HCC-78; first compound 0.02 µM): 0.3
